Holding throughout (format): biochemical
The target in one test is FGFR1 (Homo sapiens (Human), UniProt P11362). As to the kind of experiment: FGFR enzymatic assay (FRET peptide phosphorylation), FGFR1. The protocol:
(§1) The inhibitor potency of the exemplified compounds was measured in an enzyme assay that measures peptide phosphorylation using FRET measurements to detect product formation. Inhibitors were serially diluted in DMSO and a volume of 0.5 μL was transferred to the wells of a 384-well plate. For FGFR3, a 10 μL volume of FGFR3 enzyme (Millipore) diluted in assay buffer (50 mM HEPES, 10 mM MgCl2, 1 mM EGTA, 0.01% Tween-20, 5 mM DTT, pH 7.5) was added to the plate and pre-incubated for 5-10 minutes. Appropriate controls (enzyme blank and enzyme with no inhibitor) were included on the plate. […] The plate was incubated at 25° C. for 1 hr. […] The plate was allowed to equilibrate for ˜1 hr before scanning the wells on a PheraStar plate reader (BMG Labtech).
(§2) The enzymes were purchased from Millipore or Invitrogen.
(§3) GraphPad prism3 was used to analyze the data. The IC50 values were derived by fitting the data to the equation for a sigmoidal dose-response with a variable slope. Y=Bottom+(Top−Bottom)/(1+10^((LogIC50−X)*HillSlope)) where X is the logarithm of concentration and Y is the response.

The target of the next test is FGFR2 (Homo sapiens (Human), UniProt P21802). Nature of the test: FGFR enzymatic assay (FRET peptide phosphorylation), FGFR2. To be noted: FGFR2 enzyme 0.01 nM, ATP 100 μM. How it is done:
as §1, §2, §3

In the next test the target is FGFR3 (Homo sapiens (Human), UniProt P22607). As to the kind of experiment: FGFR enzymatic assay (FRET peptide phosphorylation), FGFR3. To be noted: FGFR3 enzyme (Millipore), ATP 140 μM. How it is done: as §1, §3
Chain of FGFR3 (P22607 23-806): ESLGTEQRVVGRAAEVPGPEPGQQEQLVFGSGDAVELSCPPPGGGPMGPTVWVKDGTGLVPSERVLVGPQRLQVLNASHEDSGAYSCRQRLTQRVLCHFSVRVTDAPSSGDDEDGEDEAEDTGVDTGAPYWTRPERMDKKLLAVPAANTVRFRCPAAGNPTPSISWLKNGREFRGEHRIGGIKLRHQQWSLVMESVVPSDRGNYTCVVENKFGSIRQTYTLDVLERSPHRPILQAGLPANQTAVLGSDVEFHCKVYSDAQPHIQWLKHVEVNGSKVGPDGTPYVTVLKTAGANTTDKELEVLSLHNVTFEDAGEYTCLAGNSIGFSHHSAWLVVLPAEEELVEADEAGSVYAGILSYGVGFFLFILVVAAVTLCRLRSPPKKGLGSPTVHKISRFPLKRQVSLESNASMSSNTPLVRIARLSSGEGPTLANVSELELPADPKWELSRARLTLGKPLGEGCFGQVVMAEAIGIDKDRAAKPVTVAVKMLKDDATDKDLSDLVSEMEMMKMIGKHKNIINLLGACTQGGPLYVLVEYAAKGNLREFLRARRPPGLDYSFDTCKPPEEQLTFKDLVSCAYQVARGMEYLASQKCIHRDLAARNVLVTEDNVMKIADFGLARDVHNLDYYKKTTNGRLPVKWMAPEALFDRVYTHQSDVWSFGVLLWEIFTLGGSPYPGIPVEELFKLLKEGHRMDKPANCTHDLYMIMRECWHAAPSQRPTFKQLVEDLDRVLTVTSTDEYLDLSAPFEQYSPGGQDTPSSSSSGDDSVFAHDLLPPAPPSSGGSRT
[1] abbreviates: FGFR1 enzyme 0.02 nM, ATP 210 μM.

Where two headings read alike, the source gives them in different places. Where only a bound is given, the exact number is not on record here.

Here are results for 22 compounds from patent US9611267B2, “Substituted tricyclic compounds as FGFR inhibitors” (Incyte Corporation, priority 2012, dated 2017).

Usually IC50 stands for the concentration that gives 50% inhibition. Higher therefore signals lower potency.

Chain of FGFR2 (P21802 22-821): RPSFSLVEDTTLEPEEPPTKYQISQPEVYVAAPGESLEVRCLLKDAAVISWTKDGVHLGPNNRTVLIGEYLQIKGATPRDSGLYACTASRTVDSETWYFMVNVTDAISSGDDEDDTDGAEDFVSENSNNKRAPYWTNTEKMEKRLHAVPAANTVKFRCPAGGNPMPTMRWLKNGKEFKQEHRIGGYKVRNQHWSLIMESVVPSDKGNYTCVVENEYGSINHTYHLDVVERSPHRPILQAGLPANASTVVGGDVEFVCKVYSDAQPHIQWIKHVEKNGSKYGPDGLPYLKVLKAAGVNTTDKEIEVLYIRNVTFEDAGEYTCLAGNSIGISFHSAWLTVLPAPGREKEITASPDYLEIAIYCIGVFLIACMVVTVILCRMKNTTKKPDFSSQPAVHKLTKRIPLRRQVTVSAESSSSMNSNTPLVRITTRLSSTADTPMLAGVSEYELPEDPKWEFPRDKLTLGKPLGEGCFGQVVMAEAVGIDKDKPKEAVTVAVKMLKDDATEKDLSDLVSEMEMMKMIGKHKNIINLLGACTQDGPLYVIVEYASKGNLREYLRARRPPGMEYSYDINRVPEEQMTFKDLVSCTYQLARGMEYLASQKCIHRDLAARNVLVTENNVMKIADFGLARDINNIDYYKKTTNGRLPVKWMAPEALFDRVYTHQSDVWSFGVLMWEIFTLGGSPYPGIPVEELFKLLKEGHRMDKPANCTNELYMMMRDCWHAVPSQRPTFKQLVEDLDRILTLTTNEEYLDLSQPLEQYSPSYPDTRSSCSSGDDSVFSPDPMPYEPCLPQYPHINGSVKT
Chain of FGFR1 (P11362 22-822): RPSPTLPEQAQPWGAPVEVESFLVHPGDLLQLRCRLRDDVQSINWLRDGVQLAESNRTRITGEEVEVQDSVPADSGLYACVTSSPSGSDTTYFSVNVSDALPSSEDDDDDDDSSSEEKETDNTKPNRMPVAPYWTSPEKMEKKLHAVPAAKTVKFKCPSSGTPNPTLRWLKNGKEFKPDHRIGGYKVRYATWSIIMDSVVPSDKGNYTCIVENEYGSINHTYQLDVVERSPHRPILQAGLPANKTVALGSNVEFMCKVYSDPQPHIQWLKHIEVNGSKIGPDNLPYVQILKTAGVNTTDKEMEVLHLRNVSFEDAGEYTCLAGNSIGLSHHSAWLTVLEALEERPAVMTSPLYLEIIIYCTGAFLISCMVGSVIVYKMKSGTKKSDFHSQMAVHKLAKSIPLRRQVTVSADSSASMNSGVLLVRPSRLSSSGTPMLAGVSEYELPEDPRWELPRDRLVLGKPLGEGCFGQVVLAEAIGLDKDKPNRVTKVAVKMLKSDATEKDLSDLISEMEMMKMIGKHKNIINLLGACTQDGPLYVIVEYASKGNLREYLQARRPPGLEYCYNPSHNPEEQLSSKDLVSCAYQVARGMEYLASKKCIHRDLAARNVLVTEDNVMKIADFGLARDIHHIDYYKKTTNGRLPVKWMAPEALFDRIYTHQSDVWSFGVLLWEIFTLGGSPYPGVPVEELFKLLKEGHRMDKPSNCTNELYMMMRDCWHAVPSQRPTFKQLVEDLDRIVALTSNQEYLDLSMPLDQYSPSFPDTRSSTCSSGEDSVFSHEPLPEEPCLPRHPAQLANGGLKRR

For `COc1cc(OC)cc(N2Cc3cnc4[nH]ccc4c3N(C)C2=O)c1` [Example 1, 3-(3,5-Dimethoxyphenyl)-1-methyl-1,3,4,7-tetrahydro-2H-pyrrolo[3′,2′:5,6]pyrido[4,3-d]pyrimidin-2-one], the concentration for half-maximal inhibition (IC50) at FGFR1 (setting [1]), against FGFR2 and against FGFR3 was < 0.1 µM throughout.
As for `COc1cc(OC)cc(N2Cc3cnc4[nH]ccc4c3NC2=O)c1` [Example 2, 3-(3,5-Dimethoxyphenyl)-1,3,4,7-tetrahydro-2H-pyrrolo[3′,2′:5,6]pyrido[4,3-d]pyrimidin-2-one], the half-maximal inhibitory concentration (IC50) against FGFR1 (setting [1]), on FGFR2 and at FGFR3 was < 0.1 µM each time.
Take `CCN1C(=O)N(c2cc(OC)cc(OC)c2)Cc2cnc3[nH]ccc3c21` [Example 3, 3-(3,5-Dimethoxyphenyl)-1-ethyl-1,3,4,7-tetrahydro-2H-pyrrolo[3′,2′:5,6]pyrido[4,3-d]pyrimidin-2-one]: the half-inhibitory concentration (IC50) against FGFR1 (setting [1]), against FGFR2 and against FGFR3 was < 0.1 µM in each case.
As to `COc1cc(OC)cc(N2Cc3cnc4[nH]ccc4c3N(C3CC3)C2=O)c1` [Example 4, 1-Cyclopropyl-3-(3,5-dimethoxyphenyl)-1,3,4,7-tetrahydro-2H-pyrrolo[3′,2′:5,6]pyrido[4,3-d]pyrimidin-2-one], the IC50 against FGFR1 (setting [1]), on FGFR2 and against FGFR3 was < 0.1 µM in each case.
In the case of `COc1cc(OC)cc(N2Cc3cnc4[nH]ccc4c3N(CC3CC3)C2=O)c1` [Example 5, 1-(Cyclopropylmethyl)-3-(3,5-dimethoxyphenyl)-1,3,4,7-tetrahydro-2H-pyrrolo[3′,2′:5,6]pyrido[4,3-d]pyrimidin-2-one], the IC50 at FGFR1 (setting [1]), at FGFR2 and at FGFR3 was < 0.1 µM each time.
Consider `COc1cc(OC)cc(N2Cc3cnc4[nH]ccc4c3N(Cc3ccccc3)C2=O)c1` [Example 6, 1-Benzyl-3-(3,5-dimethoxyphenyl)-1,3,4,7-tetrahydro-2H-pyrrolo[3′,2′:5,6]pyrido[4,3-d]pyrimidin-2-one], for which the 50% inhibitory concentration (IC50) on FGFR1 (setting [1]), at FGFR2 and against FGFR3 was < 0.1 µM in each case.
`COc1cc(OC)cc(N2Cc3cnc4[nH]c(-c5ccc(N6CCN(C)CC6)cc5)cc4c3N(C)C2=O)c1` [Example 10, 3-(3,5-Dimethoxyphenyl)-1-methyl-8-[4-(4-methylpiperazin-1-yl)phenyl]-1,3,4,7-tetrahydro-2H-pyrrolo[3′,2′:5,6]pyrido[4,3-d]pyrimidin-2-one]: the IC50 on FGFR1 (setting [1]), on FGFR2 and against FGFR3 was < 0.1 µM throughout.
Regarding `COc1cc(OC)cc(N2Cc3cnc4[nH]c(-c5cnn(C)c5)cc4c3N(C)C2=O)c1` [Example 11, 3-(3,5-Dimethoxyphenyl)-1-methyl-8-(1-methyl-1H-pyrazol-4-yl)-1,3,4,7-tetrahydro-2H-pyrrolo[3′,2′:5,6]pyrido[4,3-d]pyrimidin-2-one], the half-inhibitory concentration (IC50) against FGFR1 (setting [1]), on FGFR2 and against FGFR3 was < 0.1 µM each time.
Regarding `CNC(=O)c1cc2c3c(cnc2[nH]1)CN(c1cc(OC)cc(OC)c1)C(=O)N3C` [Example 12, 3-(3,5-Dimethoxyphenyl)-N,1-dimethyl-2-oxo-2,3,4,7-tetrahydro-1H-pyrrolo[3′,2′:5,6]pyrido[4,3-d]pyrimidine-8-carboxamide], the IC50 at FGFR1 (setting [1]), against FGFR2 and on FGFR3 was < 0.1 µM in each case.
For `COc1cc(OC)c(Cl)c(N2Cc3cnc4[nH]c(-c5cnn(C)c5)cc4c3N(C)C2=O)c1` [Example 13, 3-(2-Chloro-3,5-dimethoxyphenyl)-1-methyl-8-(1-methyl-1H-pyrazol-4-yl)-1,3,4,7-tetrahydro-2H-pyrrolo[3′,2′:5,6]pyrido[4,3-d]pyrimidin-2-one], the IC50 on FGFR1 (setting [1]), on FGFR2 and against FGFR3 was < 0.1 µM each time.
Turning to `COc1cc(OC)c(Cl)c(N2Cc3cnc4[nH]c(-c5cnn(CCO)c5)cc4c3N(C)C2=O)c1` [Example 14, 3-(2-Chloro-3,5-dimethoxyphenyl)-8-[1-(2-hydroxyethyl)-1H-pyrazol-4-yl]-1-methyl-1,3,4,7-tetrahydro-2H-pyrrolo[3′,2′:5,6]pyrido[4,3-d]pyrimidin-2-one], the IC50 on FGFR1 (setting [1]), against FGFR2 and against FGFR3 was < 0.1 µM each time.
Regarding `COc1cc(OC)c(Cl)c(N2Cc3cnc4[nH]c(-c5ccnn5C)cc4c3N(C)C2=O)c1` [Example 15, 3-(2-Chloro-3,5-dimethoxyphenyl)-1-methyl-8-(1-methyl-1H-pyrazol-5-yl)-1,3,4,7-tetrahydro-2H-pyrrolo[3′,2′:5,6]pyrido[4,3-d]pyrimidin-2-one], the IC50 against FGFR1 (setting [1]), against FGFR2 and on FGFR3 was < 0.1 µM throughout.
With `COc1cc(OC)c(Cl)c(N2Cc3cnc4[nH]c(C#N)cc4c3N(C)C2=O)c1` [Example 16, 3-(2-Chloro-3,5-dimethoxyphenyl)-1-methyl-2-oxo-2,3,4,7-tetrahydro-1H-pyrrolo[3′,2′:5,6]pyrido[4,3-d]pyrimidine-8-carbonitrile], the half-inhibitory concentration (IC50) against FGFR1 (setting [1]), at FGFR2 and at FGFR3 was < 0.1 µM throughout.
Take `COc1cc(OC)cc(N2Cc3cnc4[nH]c(C5=CCN(C)CC5)cc4c3N(C)C2=O)c1` [Example 17, 3-(3,5-Dimethoxyphenyl)-1-methyl-8-(1-methyl-1,2,3,6-tetrahydropyridin-4-yl)-1,3,4,7-tetrahydro-2H-pyrrolo[3′,2′:5,6]pyrido[4,3-d]pyrimidin-2-one]: the IC50 against FGFR1, against FGFR2 and against FGFR3 was < 0.1 µM each time.
For the compound `COc1cc(OC)cc(N2Cc3cnc4[nH]c(C5CCN(C)CC5)cc4c3N(C)C2=O)c1` [Example 18, 3-(3,5-Dimethoxyphenyl)-1-methyl-8-(1-methylpiperidin-4-yl)-1,3,4,7-tetrahydro-2H-pyrrolo[3′,2′:5,6]pyrido[4,3-d]pyrimidin-2-one], the 50% inhibitory concentration (IC50) at FGFR1 (setting [1]), on FGFR2 and on FGFR3 was < 0.1 µM throughout.
On to `COc1cc(OC)cc(N2Cc3cnc4[nH]c(C(=O)N(C)C)cc4c3N(C)C2=O)c1` [Example 19, 3-(3,5-Dimethoxyphenyl)-N,N,1-trimethyl-2-oxo-2,3,4,7-tetrahydro-1H-pyrrolo[3′,2′:5,6]pyrido[4,3-d]pyrimidine-8-carboxamide], for which the IC50 against FGFR1 (setting [1]), on FGFR2 and against FGFR3 was < 0.1 µM in each case.
For `COc1cc(OC)cc(N2Cc3cnc4[nH]c(C(=O)N5CC(O)C5)cc4c3N(C)C2=O)c1` [Example 20, 3-(3,5-Dimethoxyphenyl)-8-[(3-hydroxyazetidin-1-yl)carbonyl]-1-methyl-1,3,4,7-tetrahydro-2H-pyrrolo[3′,2′:5,6]pyrido[4,3-d]pyrimidin-2-one], the IC50 on FGFR1 (setting [1]), on FGFR2 and against FGFR3 was < 0.1 µM each time.
For `COc1cc(OC)cc(N2Cc3cnc4[nH]c(C(=O)N5CCC(O)C5)cc4c3N(C)C2=O)c1` (stereo not drawn) [Example 21, 3-(3,5-Dimethoxyphenyl)-8-[(3-hydroxypyrrolidin-1-yl)carbonyl]-1-methyl-1,3,4,7-tetrahydro-2H-pyrrolo[3′,2′:5,6]pyrido[4,3-d]pyrimidin-2-one], the 50% inhibitory concentration (IC50) against FGFR1 (setting [1]), against FGFR2 and against FGFR3 was < 0.1 µM throughout.
`COc1cc(OC)cc(N2Cc3cnc4[nH]c(C(=O)N5CCN(C)CC5)cc4c3N(C)C2=O)c1` [Example 22, 3-(3,5-Dimethoxyphenyl)-1-methyl-8-[(4-methylpiperazin-1-yl)carbonyl]-1,3,4,7-tetrahydro-2H-pyrrolo[3′,2′:5,6]pyrido[4,3-d]pyrimidin-2-one]: the IC50 at FGFR1 (setting [1]), against FGFR2 and at FGFR3 was < 0.1 µM each time.
With `COc1cc(OC)c(F)c(N2Cc3cnc4c(c3N(C)C2=O)C2(CC2)C(=O)N4)c1F` [Example 59, 3′-(2,6-Difluoro-3,5-dimethoxyphenyl)-1′-methyl-4′,7′-dihydrospiro[cyclopropane-1,9′-pyrrolo[3′,2′:5,6]pyrido[4,3-d]pyrimidine]-2′,8′(1′H,3′H)-dione], the IC50 against FGFR2 and at FGFR3 was < 0.1 µM throughout.
As to `COc1cc(OC)c(F)c(N2Cc3cnc4c(c3N(c3cccc(F)c3F)C2=O)CC(=O)N4)c1F` [Example 77, 3-(2,6-difluoro-3,5-dimethoxyphenyl)-1-(2,3-difluorophenyl)-3,4,7,9-tetrahydro-1H-pyrrolo[3′,2′:5,6]pyrido[4,3-d]pyrimidine-2,8-dione], the IC50 against FGFR2 and against FGFR3 was < 0.1 µM each time.
Take `COc1cc(OC)c(F)c(N2Cc3cnc4c(c3N(c3ccc(C#N)cc3)C2=O)CC(=O)N4)c1F` [Example 122, 4-[3-(2,6-difluoro-3,5-dimethoxyphenyl)-2,8-dioxo-2,3,4,7,8,9-hexahydro-1H-pyrrolo[3′,2′:5,6]pyrido[4,3-d]pyrimidin-1-yl]benzonitrile]: the 50% inhibitory concentration (IC50) against FGFR2 and against FGFR3 was < 0.1 µM throughout.
